{
  "source": "ChEMBL document CHEMBL6092220",
  "about": "(J Med Chem, 2024)",
  "key": {"[1]": {"biological_target": "T1, Protein cereblon/Signal transducer and activator of transcription 3 (Mus musculus) (UniProt P42227+Q8C7D2)", "assay": "In-vivo PROTAC activity at STAT3/CRBN in female CB17 SCID mouse assessed as reduction STAT3 level liver at 10 mg/kg, iv measured at 24 hrs by Western blot analysis", "format": "functional, organism-based", "set-up": "scale not given: the % may be the effect or the level left"}, "[2]": {"biological_target": "T1, Protein cereblon/Signal transducer and activator of transcription 3 (Mus musculus)", "assay": "In-vivo PROTAC activity at STAT3/CRBN in female CB17 SCID mouse assessed as reduction STAT3 level spleen at 10 mg/kg, iv measured at 48 hrs by Western blot analysis", "format": "functional, organism-based", "set-up": "scale not given: the % may be the effect or the level left"}, "[3]": {"biological_target": "T1, Protein cereblon/Signal transducer and activator of transcription 3 (Mus musculus)", "assay": "In-vivo PROTAC activity at STAT3/CRBN in female CB17 SCID mouse assessed as reduction STAT3 level spleen at 10 mg/kg, iv measured at 72 hrs by Western blot analysis", "format": "functional, organism-based", "set-up": "scale not given: the % may be the effect or the level left"}, "[4]": {"assay": "Cmax in ICR mouse at 5 mg/kg, iv", "format": "ADME, organism-based", "details": "in vivo"}, "[5]": {"assay": "Apparent volume of distribution in ICR mouse at 5 mg/kg, iv", "format": "ADME, organism-based", "details": "in vivo, read-out: Vz"}, "[6]": {"assay": "Clearance in ICR mouse at 5 mg/kg, iv", "format": "ADME, organism-based", "details": "in vivo"}, "[7]": {"assay": "Clearance in ICR mouse assessed as hepatic blood flow at 5 mg/kg, iv", "format": "ADME, organism-based", "details": "in vivo"}, "[8]": {"assay": "Clearance in Sprague-Dawley rat assessed as hepatic blood flow at 5 mg/kg, iv", "format": "ADME, organism-based", "details": "in vivo"}, "[9]": {"assay": "Apparent volume of distribution in Beagle dog at 1 mg/kg, iv", "format": "ADME, organism-based, Canis lupus familiaris", "details": "in vivo, read-out: Vz"}, "[10]": {"biological_target": "T2, Protein cereblon/Signal transducer and activator of transcription 3 (Homo sapiens, UniProt P40763+Q96SW2)", "assay": "PROTAC activity at his-SUMO-tagged STAT3 (127 to 688 residues)/CRBN in human PBMC cells assessed as reduction in STAT3 level at 0.1 to 4000 nM incubated for 20 hrs by Western blot analysis relative to control", "format": "cell-based", "details": "dose 0.1-4000 nM"}, "[11]": {"biological_target": "Protein cereblon/Signal transducer and activator of transcription 6 (Homo sapiens) (UniProt P42226+Q96SW2)", "assay": "PROTAC activity at STAT6/CRBN in human PBMC cells assessed as reduction in STAT6 level upto 40 uM incubated for 20 hrs by Western blot analysis", "format": "cell-based"}, "[12]": {"biological_target": "T2, Protein cereblon/Signal transducer and activator of transcription 3", "assay": "PROTAC activity at his-SUMO-tagged STAT3 (127 to 688 residues)/CRBN in human SU-DHL-1 cells assessed as reduction in STAT3 level at 0.1 to 4000 nM incubated for 20 hrs by Western blot analysis relative to control", "format": "cell-based", "details": "dose 0.1-4000 nM"}, "[13]": {"biological_target": "T2, Protein cereblon/Signal transducer and activator of transcription 3", "assay": "PROTAC activity at his-SUMO-tagged STAT3 (127 to 688 residues)/CRBN in human SU-DHL-1 cells assessed as reduction in STAT3 level incubated for 20 hrs by Western blot analysis", "format": "cell-based"}, "hERG (KCNH2)": {"biological_target": "hERG (KCNH2) (Homo sapiens, UniProt Q12809)", "assay": "Inhibition of hERG at 3 uM relative to control", "format": "toxicity"}, "[14]": {"assay": "Stability in mouse Hepatocyte assessed as half life", "format": "ADME, cell-based", "details": "hepatocytes"}, "[15]": {"assay": "Stability in rat Hepatocyte assessed as half life", "format": "ADME, cell-based", "details": "hepatocytes"}, "[16]": {"assay": "Stability in human Hepatocyte assessed as half life", "format": "ADME, cell-based", "details": "hepatocytes"}, "[17]": {"assay": "Stability in Non human primate plasma assessed as half life", "format": "ADME, cell-free"}, "[18]": {"assay": "Stability in human plasma assessed as parent compound remaining at […]", "format": "ADME, cell-free", "details": "read-out: Stability"}, "Cytochrome P450 3A4": {"biological_target": "Cytochrome P450 3A4 (Homo sapiens, UniProt P08684)", "assay": "Inhibition of CYP3A4 (unknown origin) using testosterone as substrate", "format": "ADME"}, "SU-DHL-1": {"tested_on": "SU-DHL-1", "assay": "PROTAC activity at STAT5/CRBN in human SU-DHL-1 cells assessed as reduction in STAT5 level upto 40 uM incubated for 20 hrs by Western blot analysis", "format": "cell-based"}, "[19]": {"biological_target": "T2, Protein cereblon/Signal transducer and activator of transcription 3", "assay": "PROTAC activity at STAT3/CRBN in human MOLM16 cells assessed as reduction in STAT3 level at 64 nM incubated for 4 hrs by Western blot analysis", "format": "cell-based"}, "MOLM16": {"tested_on": "MOLM16", "assay": "PROTAC activity at STAT5/CRBN in human MOLM16 cells assessed as reduction in STAT5 level upto 40 uM incubated for 4 hrs by Western blot analysis", "format": "cell-based"}, "[20]": {"biological_target": "Protein cereblon/Signal transducer and activator of transcription 1-alpha/beta (Homo sapiens, UniProt P42224+Q96SW2)", "assay": "PROTAC activity at STAT1/CRBN in human Pfeiffer cells transfected with STAT3 K658R mutant assessed as reduction in STAT1 level upto 40 uM incubated for 20 hrs by Western blot analysis", "format": "cell-based"}, "[21]": {"biological_target": "Protein cereblon/Signal transducer and activator of transcription 4 (Homo sapiens, UniProt Q96SW2+Q14765)", "assay": "PROTAC activity at STAT4/CRBN in human Pfeiffer cells transfected with STAT3 K658R mutant assessed as reduction in STAT4 level upto 40 uM incubated for 20 hrs by Western blot analysis", "format": "cell-based"}, "[22]": {"biological_target": "T2, Protein cereblon/Signal transducer and activator of transcription 3", "assay": "PROTAC activity at his-SUMO-tagged STAT3 (127 to 688 residues)/CRBN in human MOLM16 cells assessed as reduction in STAT3 level upto 40 uM incubated for 4 hrs by Western blot analysis relative to control", "format": "cell-based", "set-up": "scale not given: the % may be the effect or the level left"}, "[23]": {"biological_target": "Signal transducer and activator of transcription 1-alpha/beta (Homo sapiens, UniProt P42224)", "assay": "Binding affinity to STAT1 (unknown origin) by FP assay"}, "[24]": {"biological_target": "Signal transducer and activator of transcription 3 (Homo sapiens, UniProt P40763)", "assay": "Binding affinity to STAT3 (unknown origin) assessed as maximum inhibition by FP assay relative to control"}, "[25]": {"biological_target": "Signal transducer and activator of transcription 4 (Homo sapiens) (UniProt Q14765)", "assay": "Binding affinity to STAT4 (unknown origin) assessed as maximum inhibition by FP assay relative to control"}, "[26]": {"biological_target": "Signal transducer and activator of transcription 6 (Homo sapiens) (UniProt P42226)", "assay": "Binding affinity to STAT6 (unknown origin) assessed as maximum inhibition by FP assay relative to control"}, "[27]": {"biological_target": "T2, Protein cereblon/Signal transducer and activator of transcription 3", "assay": "PROTAC activity at his-SUMO-tagged STAT3 (127 to 688 residues)/CRBN in human MOLM16 cells assessed as reduction in STAT3 level at 10 uM incubated for 4 hrs by multiplexed quantitative proteomics analysis relative to control", "format": "cell-based", "set-up": "scale not given: the % may be the effect or the level left"}, "[28]": {"biological_target": "T1, Protein cereblon/Signal transducer and activator of transcription 3 (Mus musculus)", "assay": "In-vivo PROTAC activity at STAT3/CRBN in female CB17 SCID mouse assessed as STAT3 depletion spleen at 5 mg/kg, iv measured upto 72 hrs by immunobloting analysis", "format": "functional, organism-based"}, "[29]": {"biological_target": "T1, Protein cereblon/Signal transducer and activator of transcription 3 (Mus musculus)", "assay": "In-vivo PROTAC activity at STAT3/CRBN in female CB17 SCID mouse assessed as STAT3 depletion spleen at 5 mg/kg, iv measured at 1 hr by immunobloting analysis", "format": "functional, organism-based"}, "[30]": {"assay": "Drug concentration in female CB17 SCID mouse liver at 5 mg/kg, iv measured at 1 hr by LC-MS/MS analysis", "format": "ADME, organism-based", "details": "read-out: Ct"}, "[31]": {"assay": "Drug concentration in female CB17 SCID mouse spleen at 5 mg/kg, iv measured at 6 hrs by LC-MS/MS analysis", "format": "ADME, organism-based", "details": "read-out: Ct"}, "[32]": {"assay": "Drug concentration in female CB17 SCID mouse tumor at 5 mg/kg, iv measured at 24 hrs by LC-MS/MS analysis", "format": "ADME, organism-based, Neoplasm", "details": "read-out: Ct"}},
  "note": "The source made the active and inactive calls. No cut-off for these calls is given here.",
  "data": [
    {"smiles": "COC(=O)N1CC[C@H]2CC[C@@H](C(=O)N[C@@H](CCC(N)=O)C(=O)N[C@@H](Cc3ccc(F)c(F)c3)C(=O)N3CCC(CCC#Cc4cccc5c4CN(C4CCC(=O)NC4=O)C5=O)CC3)N2C(=O)[C@@H](NC(=O)c2cc3cc(C(F)(F)P(=O)(O)O)ccc3s2)C1", "note": "(stereo partly specified)", "values": [
      {"measurement": "Activity", "setting": "[1]", "result": "> 90", "unit": "%"},
      {"measurement": "Activity", "setting": "[2]", "result": "> 90", "unit": "%"},
      {"measurement": "Activity", "setting": "[3]", "result": "> 90", "unit": "%"},
      {"measurement": "Cmax", "setting": "[4]", "result": 130, "unit": "µg/mL"},
      {"measurement": "Vd", "setting": "[5]", "result": 0.1, "unit": "L/kg"},
      {"measurement": "clearance", "setting": "[6]", "result": 3.06, "unit": "mL/h/kg"},
      {"measurement": "QH", "setting": "[7]", "result": 0.1, "unit": "%"},
      {"measurement": "QH", "setting": "[8]", "result": 2.6, "unit": "%"},
      {"measurement": "Vd", "setting": "[9]", "result": 0.29, "unit": "L/kg"},
      {"measurement": "Emax", "setting": "[10]", "result": "> 95", "unit": "%"},
      {"measurement": "Activity", "setting": "[11]", "result": "inactive"},
      {"measurement": "Emax", "setting": "[12]", "result": "> 95", "unit": "%"},
      {"measurement": "DC50", "setting": "[13]", "result": 10, "unit": "nM"},
      {"measurement": "inhibition at 3 µM", "setting": "hERG (KCNH2)", "result": 1.3, "unit": "%"},
      {"measurement": "t1/2", "setting": "[14]", "result": "> 2", "unit": "h"},
      {"measurement": "t1/2", "setting": "[15]", "result": "> 2", "unit": "h"},
      {"measurement": "t1/2", "setting": "[16]", "result": "> 2", "unit": "h"},
      {"measurement": "half-life", "setting": "[17]", "result": "> 2", "unit": "h"},
      {"measurement": "remaining at 2 h", "setting": "[18]", "result": 75, "unit": "%"},
      {"measurement": "IC50", "setting": "Cytochrome P450 3A4", "result": "> 10000", "unit": "nM"},
      {"measurement": "Activity", "setting": "SU-DHL-1", "result": "inactive"},
      {"measurement": "Activity", "setting": "[19]", "result": "Active"},
      {"measurement": "Activity", "setting": "MOLM16", "result": "inactive"},
      {"measurement": "Activity", "setting": "[20]", "result": "inactive"},
      {"measurement": "Activity", "setting": "[21]", "result": "inactive"},
      {"measurement": "Activity", "setting": "[22]", "result": "> 95", "unit": "%"},
      {"measurement": "IC50", "setting": "[23]", "result": 270, "unit": "nM"},
      {"measurement": "Imax", "setting": "[24]", "result": 100, "unit": "%"},
      {"measurement": "Imax", "setting": "[25]", "result": 100, "unit": "%"},
      {"measurement": "Imax", "setting": "[26]", "result": 10, "unit": "%"},
      {"measurement": "Activity", "setting": "[27]", "result": 85, "unit": "%"},
      {"measurement": "Activity", "setting": "[28]", "result": "Active"},
      {"measurement": "Activity", "setting": "[29]", "result": "> 70", "unit": "%"},
      {"measurement": "concentration at 1 h", "setting": "[30]", "result": 5850, "unit": "ng/g"},
      {"measurement": "concentration at 6 h", "setting": "[31]", "result": 1950, "unit": "ng/g"},
      {"measurement": "concentration at 24 h", "setting": "[32]", "result": 1800, "unit": "ng/g"}
    ]}
  ]
}
